Key:
Assay in all cases: Histone peptide microarray
Assay type in all cases: binding, human
[1] = test system: ING1; conditions: sheet "Array Heatmap"; GST-tagged ING1; arrays performed twice, total replicate number n = 4
Method in brief: (§1)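 Purified PHD finger domains fused to GST are screened against 293 synthetic histone peptides bearing one or several post-translational modifications. The protein is used at 0.5 μM, and the signal from four replicate arrays is averaged, with standard deviation given.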

[2] = test system: KDM5A (3); conditions: sheet "Array Heatmap"; GST-tagged KDM5A (3); arrays performed twice, total replicate number n = 4
Method in brief: as §1

[3] = test system: ING3; conditions: sheet "Array Heatmap"; GST-tagged ING3; arrays performed twice, total replicate number n = 4
Method in brief: as §1

[4] = test system: MORC3 (CW); conditions: sheet "Array Heatmap"; GST-tagged MORC3 (CW); arrays performed twice, total replicate number n = 4
Method in brief: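 Each reader, produced as a GST fusion and purified, was tested at 0.5 μM on synthetic histone peptides (293 in total) carrying single or combinatorial marks. Intensities averaged over four replicates.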

[5] = test system: TRIM66 (PB); conditions: sheet "Array Heatmap"; GST-tagged TRIM66 (PB); arrays performed twice, total replicate number n = 4
Method in brief: as §1

[6] = test system: AIRE (PP); conditions: sheet "Array Heatmap"; GST-tagged AIRE (PP); arrays performed twice, total replicate number n = 4
Method in brief: as §1

[7] = test system: TAF3; conditions: sheet "Array Heatmap"; GST-tagged TAF3; arrays performed twice, total replicate number n = 4
Method in brief: as §1

[8] = test system: SP140L; conditions: sheet "Array Heatmap"; GST-tagged SP140L; arrays performed twice, total replicate number n = 4
Method in brief: as §1

[9] = test system: CHD5 (PCC); conditions: sheet "Array Heatmap"; GST-tagged CHD5 (PCC); arrays performed twice, total replicate number n = 4
Method in brief: as §1

[10] = test system: KDM4C (TTP); conditions: sheet "Array Heatmap"; GST-tagged KDM4C (TTP); arrays performed twice, total replicate number n = 4
Method in brief: as §1

[11] = test system: RAG2; conditions: sheet "Array Heatmap"; GST-tagged RAG2; arrays performed twice, total replicate number n = 4
Method in brief: as §1

[12] = test system: DPF2 (PPC2W2); conditions: sheet "Array Heatmap"; GST-tagged DPF2 (PPC2W2); arrays performed twice, total replicate number n = 4
Method in brief: as §1

[13] = test system: PHF23; conditions: sheet "Array Heatmap"; GST-tagged PHF23; arrays performed twice, total replicate number n = 4
Method in brief: as §1

[14] = test system: PHRF1 (RP); conditions: sheet "Array Heatmap"; GST-tagged PHRF1 (RP); arrays performed twice, total replicate number n = 4
Method in brief: as §1

[15] = test system: ING5; conditions: sheet "Array Heatmap"; GST-tagged ING5; arrays performed twice, total replicate number n = 4
Method in brief: as §1

[16] = test system: ING2; conditions: sheet "Array Heatmap"; GST-tagged ING2; arrays performed twice, total replicate number n = 4
Method in brief: as §1

[17] = test system: PHF21A; conditions: sheet "Array Heatmap"; GST-tagged PHF21A; arrays performed twice, total replicate number n = 4
Method in brief: as §1

[18] = test system: KDM5B (1); conditions: sheet "Array Heatmap"; GST-tagged KDM5B (1); arrays performed twice, total replicate number n = 4
Method in brief: as §1

[19] = test system: BAZ2B; conditions: sheet "Array Heatmap"; GST-tagged BAZ2B; arrays performed twice, total replicate number n = 4
Method in brief: as §1

[20] = test system: DIDO1; conditions: sheet "Array Heatmap"; GST-tagged DIDO1; arrays performed twice, total replicate number n = 4
Method in brief: as §1

[21] = test system: KDM7A; conditions: sheet "Array Heatmap"; GST-tagged KDM7A; arrays performed twice, total replicate number n = 4
Method in brief: as §1

[22] = test system: MLL5; conditions: sheet "Array Heatmap"; GST-tagged MLL5; arrays performed twice, total replicate number n = 4
Method in brief: as §1

[23] = test system: BPTF (PB); conditions: sheet "Array Heatmap"; GST-tagged BPTF (PB); arrays performed twice, total replicate number n = 4
Method in brief: as §1

[24] = test system: KDM5B (3); conditions: sheet "Array Heatmap"; GST-tagged KDM5B (3); arrays performed twice, total replicate number n = 4
Method in brief: as §1

[25] = test system: CHD4 (PPCC); conditions: sheet "Array Heatmap"; GST-tagged CHD4 (PPCC); arrays performed twice, total replicate number n = 4
Method in brief: as §1

[26] = test system: PHF8; conditions: sheet "Array Heatmap"; GST-tagged PHF8; arrays performed twice, total replicate number n = 4
Method in brief: as §1

[27] = test system: KDM5A (1); conditions: sheet "Array Heatmap"; GST-tagged KDM5A (1); arrays performed twice, total replicate number n = 4
Method in brief: as §1

[28] = test system: ING4; conditions: sheet "Array Heatmap"; GST-tagged ING4; arrays performed twice, total replicate number n = 4
Method in brief: as §1

[29] = test system: CHD5 (PPCC); conditions: sheet "Array Heatmap"; GST-tagged CHD5 (PPCC); arrays performed twice, total replicate number n = 4
Method in brief: as §1

[30] = test system: PHF13; conditions: sheet "Array Heatmap"; GST-tagged PHF13; arrays performed twice, total replicate number n = 4
Method in brief: as §1

[31] = test system: PHF2; conditions: sheet "Array Heatmap"; GST-tagged PHF2; arrays performed twice, total replicate number n = 4
Method in brief: as §1

Substance	Array Heatmap signal, ING1 [1]	Array Heatmap signal, KDM5A (3) [2]	Array Heatmap signal, ING3 [3]	Array Heatmap signal, MORC3 (CW) [4]	Array Heatmap signal, TRIM66 (PB) [5]	Array Heatmap signal, AIRE (PP) [6]	Array Heatmap signal, TAF3 [7]	Array Heatmap signal, SP140L [8]	Array Heatmap signal, CHD5 (PCC) [9]	Array Heatmap signal, KDM4C (TTP) [10]	Array Heatmap signal, RAG2 [11]	Array Heatmap signal, DPF2 (PPC2W2) [12]	Array Heatmap signal, PHF23 [13]	Array Heatmap signal, PHRF1 (RP) [14]	Array Heatmap signal, ING5 [15]	Array Heatmap signal, ING2 [16]	Array Heatmap signal, PHF21A [17]	Array Heatmap signal, KDM5B (1) [18]	Array Heatmap signal, BAZ2B [19]	Array Heatmap signal, DIDO1 [20]	also measured
H3.3K27me3 + S28p: H3.3 15-34	0.4657	0.3655	0.4009	0.3155	0.52	0.3112	0.2035	0.3164	0.7455	0.35	0.2001	0.5839	0.4498	0.3794	0.2601	0.582	0.4021	0.5567	0.3578	0.6255	Array Heatmap signal, KDM7A [21]: 0.2454; Array Heatmap signal, MLL5 [22]: 0.4825; Array Heatmap signal, BPTF (PB) [23]: 0.288; Array Heatmap signal, KDM5B (3) [24]: 0.357; Array Heatmap signal, CHD4 (PPCC) [25]: 0.5244; Array Heatmap signal, PHF8 [26]: 0.2831; Array Heatmap signal, KDM5A (1) [27]: 0.3549; Array Heatmap signal, ING4 [28]: 0.3661; Array Heatmap signal, CHD5 (PPCC) [29]: 0.4194; Array Heatmap signal, PHF13 [30]: 0.4998; Array Heatmap signal, PHF2 [31]: 0.4942
H3.3K27me3: H3.3 15-34 [Peptide H3.3K27me3]	0.5843	0.4949	0.5349	0.4234	0.6617	0.536	0.2913	0.3923	0.8198	0.5632	0.2705	0.7311	0.6091	0.5177	0.4224	0.6109	0.5192	0.6871	0.5914	0.7249	Array Heatmap signal, KDM7A [21]: 0.3849; Array Heatmap signal, MLL5 [22]: 0.5722; Array Heatmap signal, BPTF (PB) [23]: 0.4048; Array Heatmap signal, KDM5B (3) [24]: 0.5372; Array Heatmap signal, CHD4 (PPCC) [25]: 0.5987; Array Heatmap signal, PHF8 [26]: 0.4126; Array Heatmap signal, KDM5A (1) [27]: 0.5261; Array Heatmap signal, ING4 [28]: 0.5176; Array Heatmap signal, CHD5 (PPCC) [29]: 0.6383; Array Heatmap signal, PHF13 [30]: 0.7006; Array Heatmap signal, PHF2 [31]: 0.5285
